Measured values reported in patent publication US8889724B2, “Tetrazole compounds for reducing uric acid” (Wellstat Therapeutics Corporation, priority 2008, dated 2014).
Where “and” joins values, the source holds several entries; their conditions need not be identical. Equal entries are not always repeated. Where two headings read alike, the source gives them in different places.

Assay: Mouse oral single-dose pharmacokinetic study with Compound EB
Assay type: in vivo
Settings: 100 mg/kg single oral gavage
Description: Mouse Oral Single-Dose Pharmacokinetic Study with Compound EB
Determination of the Plasma profile of Compound EB following single oral gavage administration to male mice:
Test compounds were suspended in 1% HPMC using a tissue homogenizer to minimize particles and maximize uniformity of the suspension and stored at 4° C. The formulations was thoroughly mixed just prior to administration. A dose of 100 mg/kg of Compound EB or vehicle (1% HPMC) was administered to male mice by single oral gavage. Mice were placed in urine collectors after dosing for 5 hours, and the total urine output for 5 hours was collected. Samples were frozen at −80° C. until analyzed using LC/MS-MS.
At 0, 0.5, 1, 2, 4, 6, 8 and 24 hours post-dose time points, blood samples (0.4 mL) were collected by orbital sinus bleeds in K3EDTA tubes. The blood samples were centrifuged within 30 minutes of collection under refrigeration (2-8° C.) for 7 minutes at 6000 rpm. Following centrifugation, the plasma were harvested into a single tube for each animal at each time point and immediately frozen at −80° C. until analyzed using LC/MS-MS. Data was subjected to pharmacokinetic analyses using WinNonlin Standard (v2.1, Pharsight Corporation) and Microsoft EXCEL.
1. Mice received single oral gavage of Compound EB, 100 mg/kg, and plasma was collected at certain times.
2. Plasma was stored at −80° C. until the day of analysis.
3. Samples were thawed on 37° C. bath for 5 min and vortexed at top speed for 10 sec.
4. Mouse plasma, 0.1 mL was mixed with 0.2 mL Acetonitrile, vortexed 1 min, spun down 14000 rpm, 17000 g, at 4° C., for 25 min.
5. Supernatants were filtered through 0.45 micron, 4 mm, PTFE membrane syringe filter (Phenomenex # AF0-3102-52), and 13 microL were injected and resolved on Luna 3 micron, 100 A pore, C8(2), 150×3 mm, reverse phase column (Phenomenex#00F-4248-YO, SN#259151-7) in 50 min linear gradient from 40% to 69% of (0.1% Formic Acid, 89.9% Acetonitrile, 10% Methanol) at 0.25 mL/min, 100 bar, 37° C. column temperature, method 406975M1, Sequence 1029-08A, Agilent 1100 LC-MS.
All samples were run in duplicate, 210 nm and 230 nm Absorbances, Negative and Positive ionization spectrograms recorded.
Step 1. Plasma from “Vehicle” animals (pooled), 0.095 mL, was mixed with 0.005 mL 20× stock of Compound EB in Methanol to make 500 microM, 250 microM, 125 microM, . . . , concentrations of Compound EB in plasma.
For example: 95 microL plasma+5 microL of 10 mM Compound EB in methanol=0.1 mL plasma with 500 microM Compound EB.
Step 2. Samples from step 1 were vortexed for 10 sec at top speed.
Step 3. 0.2 mL of acetonitrile was added to all samples from Step 2, and all vials were vortexed at top speed for 1 min.
Step 4. All samples from step 3 were spun down 14000 rpm, 17000 g, at 4° C., for 25 min.
Step 5. Supernatants were filtered through 0.45 micron, 4 mm, PTFE membrane syringe filter (Phenomenex # AF0-3102-52), 13 microL were injected and resolved on Luna 3 micron, 100 A pore, C8(2), 150×3 mm, reverse phase column

Detection in mouse plasma (in words) (LC-MS): readily detected | Compound EB concentr. in plasma, individual animals (male mice, bleed time 0 HR): 0 µg/mL | Compound EB concentr. in plasma, individual animals (male mice, bleed time 0.5 HR): 207.5 µg/mL and 134.2 µg/mL | Compound EB concentr. in plasma, individual animals (male mice, bleed time 1 HR): 139.7 µg/mL and 157.6 µg/mL | Compound EB concentr. in plasma, individual animals (male mice, bleed time 4 HR): 74.9 µg/mL and 92.1 µg/mL and 39.6 µg/mL | Compound EB concentr. in plasma, individual animals (male mice, bleed time 6 HR): 79.9 µg/mL and 48 µg/mL | Compound EB concentr. in plasma, individual animals (male mice, bleed time 8 HR): 18.2 µg/mL and 10.7 µg/mL and 0 µg/mL | Compound EB concentr. in plasma, individual animals (male mice, bleed time 24 HR): 0 µg/mL | AUC0-24 (male mice, plasma): AUC0-24: 796 μg/mL | concentration at 0 h (male, mouse, plasma, po, 100 mg/kg, male mice, 0 hr, read-out: Compound EB concentration in plasma, average): 0 ng/mL | concentration at 0.5 h (male, mouse, plasma, po, 100 mg/kg, male mice, 0.5 hr, read-out: Compound EB concentration in plasma, average): 183 µg/mL | concentration at 1 h (male, mouse, plasma, po, 100 mg/kg, male mice, 1 hr, read-out: Compound EB concentration in plasma, average): 169 µg/mL | concentration at 2 h (male, mouse, plasma, po, 100 mg/kg, male mice, 2 hr): 137 µg/mL | concentration at 4 h (male, mouse, plasma, po, 100 mg/kg, male mice, 4 hr): 69 µg/mL | concentration at 6 h (male, mouse, plasma, po, 100 mg/kg, male mice, 6 hr, read-out: Compound EB concentration in plasma, average): 62 µg/mL | concentration at 8 h (male, mouse, plasma, po, 100 mg/kg, male mice, 8 hr): 10 µg/mL | concentration at 24 h (male, mouse, plasma, po, 100 mg/kg, male mice, 24 hr, read-out: Compound EB concentration in plasma, average): 3 µg/mL | concentration at 0 h (male, mouse, plasma, po, 100 mg/kg, male mice, bleed time 0 HR, read-out: Compound EB concentr. in plasma, individual animals): 0 ng/mL | concentration at 0.5 h (male, mouse, plasma, po, 100 mg/kg, male mice, bleed time 0.5 HR, read-out: Compound EB concentr. in plasma, individual animals): 206 µg/mL | concentration at 1 h (male, mouse, plasma, po, 100 mg/kg, male mice, bleed time 1 HR, read-out: Compound EB concentr. in plasma, individual animals): 210 µg/mL | concentration at 6 h (male, mouse, plasma, po, 100 mg/kg, male mice, bleed time 6 HR, read-out: Compound EB concentr. in plasma, individual animals): 58.7 µg/mL | concentration at 24 h (male, mouse, plasma, po, 100 mg/kg, male mice, bleed time 24 HR, read-out: Compound EB concentr. in plasma, individual animals): 0 µg/mL | Cmax (mouse, male mice, plasma): 210 µg/mL
Compound: Cc1cccc(C)c1COc1cccc(-c2nnn[nH]2)c1 [Compound EB, 5-(3-(2,6-Dimethylbenzyloxy)phenyl)-1H-tetrazole]
Compound EB concentr. in plasma, individual animals (male mice, bleed time 2 HR): 139.9 µg/mL and 187.6 µg/mL and 82.4 µg/mL
